Measurements as given in patent US20050070510A1, “Substituted tetracycline compounds as synergistic antifungal agents” (Paratek Pharmaceuticals, Inc., priority 2001, published 2005).

test system: COS-1 cells; assay: In vitro mammalian cytotoxicity assay (Resazurin)

Compound | In Vitro Cytotoxicity
CN(C)[C@@H]1C(O)=C(C(N)=O)C(=O)[C@@]2(C#N)C(O)=C3C(=O)c4c(O)ccc(I)c4[C@H](N)[C@@]3(N)[C@H](O)[C@@]12N [CL] | ** (toxicities less than 25 μg/mL are represented by **)
CN(C)[C@@H]1C(O)=C(C(N)=O)C(=O)[C@@]2(C#N)C(O)=C3C(=O)c4c(ccc(NC(=O)OCCBr)c4O)[C@H](N)[C@@]3(N)[C@H](O)[C@@]12N [DD] | ** (toxicities less than 25 μg/mL are represented by **)
CN(C)[C@@H]1C(O)=C(C(N)=O)C(=O)[C@@]2(C#N)C(O)=C3C(=O)c4c(ccc(NC=O)c4O)C(N)[C@@]3(N)[C@H](O)[C@@]12N (stereo partly shown) [DC] | ** (toxicities less than 25 μg/mL are represented by **)
CN(C)[C@@H]1C(O)=C(C(N)=O)C(=O)[C@@]2(C#N)C(O)=C3C(=O)c4c(ccc(-c5ccccc5)c4O)C(N)[C@@]3(N)[C@H](O)[C@@]12N (stereo partly shown) [AX] | ** (toxicities less than 25 μg/mL are represented by **)
CN(C)c1ccc(-c2cc(C#CC3=CCCCC3)c(O)c3c2C[C@@]2(N)C[C@@]4(N)[C@H](N(C)C)C(O)=C(C(N)=O)C(=O)[C@@]4(C#N)C(O)=C2C3=O)cc1 [QO] | ** (toxicities less than 25 μg/mL are represented by **)
CN(C)c1cc(C#Cc2ccc(N)cc2)c(O)c2c1C[C@@]1(N)C[C@@]3(N)[C@H](N(C)C)C(O)=C(C(N)=O)C(=O)[C@@]3(C#N)C(O)=C1C2=O [JG] | * (toxicities greater than >25 μg/ml are represented by *)
CN(C)c1cc(-c2ccc(CN3CCCC3)cc2)c(O)c2c1C[C@@]1(N)C[C@@]3(N)[C@H](N(C)C)C(O)=C(C(N)=O)C(=O)[C@@]3(C#N)C(O)=C1C2=O [JZ] | ** (toxicities less than 25 μg/mL are represented by **)
COC(=O)C1C(=O)[C@@]2(O)C(O)=C3C(=O)c4c(O)c(N(C)Cc5cc[nH]n5)cc(N(C)C)c4C[C@@]3(N)C[C@@]2(N)[C@H](N(C)C)C1OC (stereo partly shown) [VG] | ** (toxicities less than 25 μg/mL are represented by **)
CN(C)c1cc(-c2ccc(CN3CCCC3)o2)c(O)c2c1C[C@@]1(N)C[C@@]3(N)[C@H](N(C)C)C(O)=C(C(N)=O)C(=O)[C@@]3(C#N)C(O)=C1C2=O [SQ] | * (toxicities greater than >25 μg/ml are represented by *)
CN(C)[C@@H]1C(O)=C(C(N)=O)C(=O)[C@@]2(C#N)C(O)=C3C(=O)c4c(O)ccc(-c5ccc(NC(=O)CNC(C)(C)C)cc5)c4C[C@@]3(N)C[C@@]12N [UZ] | ** (toxicities less than 25 μg/mL are represented by **)
CC(C)CNC(=O)NCc1cc(N(C)C)c2c(c1O)C(=O)C1=C(O)[C@]3(C#N)C(=O)C(C(N)=O)=C(O)[C@@H](N(C)C)[C@]3(N)C[C@]1(N)C2 [MF] | * (toxicities greater than >25 μg/ml are represented by *)
CN(C)[C@@H]1C(O)=C(C(N)=O)C(=O)[C@@]2(C#N)C(O)=C3C(=O)c4c(ccc(Nc5nc(-c6cccc([N+](=O)O)c6)cs5)c4O)[C@H](O)[C@@]3(N)[C@H](O)[C@@]12N [DV] | ** (toxicities less than 25 μg/mL are represented by **)
CN(C)c1cc(-c2cccc([N+](=O)O)c2)c(O)c2c1C[C@@]1(N)C[C@@]3(N)[C@H](N(C)C)C(O)=C(C(N)=O)C(=O)[C@@]3(C#N)C(O)=C1C2=O [EG] | ** (toxicities less than 25 μg/mL are represented by **)
CN(C)[C@@H]1C(O)=C(C(N)=O)C(=O)[C@@]2(C#N)C(O)=C3C(=O)c4c(O)ccc(-c5ccc(C(C)(C)C)cc5)c4C[C@@]3(N)C[C@@]12N [GK] | ** (toxicities less than 25 μg/mL are represented by **)
CN(C)c1cc(CCC2CCCC2)c(O)c2c1C[C@@]1(N)C[C@@]3(N)[C@H](N(C)C)C(O)=C(C(N)=O)C(=O)[C@@]3(C#N)C(O)=C1C2=O [KM] | ** (toxicities less than 25 μg/mL are represented by **)
CN(C)c1cc(CNC(=O)c2ccco2)c(O)c2c1C[C@@]1(N)C[C@@]3(N)[C@H](N(C)C)C(O)=C(C(N)=O)C(=O)[C@@]3(C#N)C(O)=C1C2=O [SW] | * (toxicities greater than >25 μg/ml are represented by *)
COC(=O)/C=C/c1ccc2c(c1O)C(=O)C1=C(O)[C@]3(C#N)C(=O)C(C(N)=O)=C(O)[C@@H](N(C)C)[C@]3(N)[C@@H](O)[C@]1(N)C2N (stereo partly shown) [AW] | ** (toxicities less than 25 μg/mL are represented by **)
CN(C)[C@@H]1C(O)=C(C(=O)CC(C)(C)C)C(=O)[C@@]2(C#N)C(O)=C3C(=O)c4c(O)c(C(C)(C)C)cc(-c5cccc([N+](=O)O)c5)c4C[C@@]3(N)C[C@@]12N [KT] | ** (toxicities less than 25 μg/mL are represented by **)
CCOP(=O)(OCC)C(Nc1ccccc1)c1ccc(-c2cc(N(C)C)c3c(c2O)C(=O)C2=C(O)[C@]4(C#N)C(=O)C(C(N)=O)=C(O)[C@@H](N(C)C)[C@]4(N)C[C@]2(N)C3)cc1 (stereo partly shown) [KP] | * (toxicities greater than >25 μg/ml are represented by *)
C=CCNc1ccc2c(c1O)C(=O)C1=C(O)[C@]3(C#N)C(=O)C(C(N)=O)=C(O)[C@@H](N(C)C)[C@]3(N)[C@@H](O)[C@]1(N)[C@H]2N [CI] | ** (toxicities less than 25 μg/mL are represented by **)
CC(=O)c1ccc(NC(=O)NCc2cc(N(C)C)c3c(c2O)C(=O)C2=C(O)[C@]4(C#N)C(=O)C(C(N)=O)=C(O)[C@@H](N(C)C)[C@]4(N)C[C@]2(N)C3)cc1 [NA] | * (toxicities greater than >25 μg/ml are represented by *)
CC(C)S(=O)(=O)NCC#Cc1cc(N(C)C)c2c(c1O)C(=O)C1=C(O)[C@]3(C#N)C(=O)C(C(N)=O)=C(O)[C@@H](N(C)C)[C@]3(N)C[C@]1(N)C2 [JY] | * (toxicities greater than >25 μg/ml are represented by *)
CN(C)[C@@H]1C(O)=C(C(N)=O)C(=O)[C@@]2(C#N)C(O)=C3C(=O)c4c(O)c(CN)cc(-c5cccc([N+](=O)O)c5)c4C[C@@]3(N)C[C@@]12N [JP] | * (toxicities greater than >25 μg/ml are represented by *)
CCCCOCCCNCc1ccc(OC)c(-c2ccc(O)c3c2C[C@@]2(N)C[C@@]4(N)[C@H](N(C)C)C(O)=C(C(N)=O)C(=O)[C@@]4(C#N)C(O)=C2C3=O)c1 [NL] | * (toxicities greater than >25 μg/ml are represented by *)
Cc1coc(NCc2cc(N(C)C)c3c(c2O)C(=O)C2=C(O)[C@]4(C#N)C(=O)C(C(N)=O)=C(O)[C@@H](N(C)C)[C@]4(N)C[C@]2(N)C3)n1 [TE] | * (toxicities greater than >25 μg/ml are represented by *)
CN(C)CC(=O)Nc1ccc2c(c1O)C(=O)C1=C(O)[C@]3(C#N)C(=O)C(C(N)=O)=C(O)[C@@H](N(C)C)[C@]3(N)C[C@]1(N)C2 [KU] | * (toxicities greater than >25 μg/ml are represented by *)
CN(C)c1cc(C#CC2(O)CCCCC2)c(O)c2c1C[C@@]1(N)C[C@@]3(N)[C@H](N(C)C)C(O)=C(C(N)=O)C(=O)[C@@]3(C#N)C(O)=C1C2=O [FP] | * (toxicities greater than >25 μg/ml are represented by *)
CN(C)[C@@H]1C(O)=C(C(N)=O)C(=O)[C@@]2(C#N)C(O)=C3C(=O)c4c(O)ccc(I)c4C[C@@]3(N)C[C@@]12N [CU] | ** (toxicities less than 25 μg/mL are represented by **)
